From the NIST ThermoML archive (doi:10.1021/je800335v)

Assays:
[1] = molar heat capacity at constant pressure; conditions: 101.33 kPa, Liquid, Small sample (50 mg) DSC
[2] = molar heat capacity at constant pressure; xn = mol fraction of the nth substance listed; conditions: 298 K, 101 kPa, Liquid, Small sample (50 mg) DSC

CCCCCCCCCCCCCC[P+](CCCCCC)(CCCCCC)CCCCCC.O=S(=O)([N-]S(=O)(=O)C(F)(F)F)C(F)(F)F
[1]
Conditions	molar heat capacity at constant pressure [J/K/mol]
293 K	1366
298 K	1366
303 K	1368
308 K	1372
313 K	1379
318 K	1384
323 K	1389
328 K	1389
333 K	1395
338 K	1397
343 K	1402
348 K	1405
353 K	1409
358 K	1413

CCCC[n+]1ccn(C)c1.O=S(=O)([N-]S(=O)(=O)C(F)(F)F)C(F)(F)F
[1]
Conditions	molar heat capacity at constant pressure [J/K/mol]
293 K	595
298 K	599
303 K	603
308 K	607
313 K	612
318 K	617
323 K	621
328 K	624
333 K	628
338 K	631
343 K	634
348 K	636
353 K	639
358 K	641

CCCC[N+]1(C)CCCC1.FC(F)(F)C(F)(F)[P-](F)(F)(F)(C(F)(F)C(F)(F)F)C(F)(F)C(F)(F)F
[1]
Conditions	molar heat capacity at constant pressure [J/K/mol]
293 K	767
298 K	769
303 K	773
308 K	776
313 K	781
318 K	785
323 K	788
328 K	791
333 K	796
338 K	799
343 K	803
348 K	806
353 K	809
358 K	812

CCCCn1cc[n+](C)c1.O=S(=O)([O-])C(F)(F)F [1-butyl-3-methylimidazolium trifluoromethanesulfonate] + O
[2]
Conditions	molar heat capacity at constant pressure [J/K/mol]
x2 = 0.0108	448
x2 = 0.137	401
x2 = 0.3379	325
x2 = 0.5215	257

CCn1cc[n+](C)c1.O=S(=O)([N-]S(=O)(=O)C(F)(F)F)C(F)(F)F
[1]
Conditions	molar heat capacity at constant pressure [J/K/mol]
293 K	523
298 K	525
303 K	527
308 K	529
313 K	533
318 K	535
323 K	538
328 K	539
333 K	542
338 K	545
343 K	547
348 K	548
353 K	550
358 K	551

CCCCn1cc[n+](C)c1.O=S(=O)([O-])C(F)(F)F [1-butyl-3-methylimidazolium trifluoromethanesulfonate]
[1]
Conditions	molar heat capacity at constant pressure [J/K/mol]
293 K	455
298 K	457
303 K	459
308 K	461
313 K	465
318 K	469
323 K	473
328 K	477
333 K	481
338 K	486
343 K	490
348 K	495
353 K	500
358 K	504

CCCCCC[n+]1ccn(C)c1.O=S(=O)([N-]S(=O)(=O)C(F)(F)F)C(F)(F)F
[1]
Conditions	molar heat capacity at constant pressure [J/K/mol]
293 K	669
298 K	667
303 K	667
308 K	668
313 K	671
318 K	673
323 K	675
328 K	676
333 K	679
338 K	680
343 K	683
348 K	685
353 K	687
358 K	689

CCCC[N+]1(C)CCCC1.O=S(=O)([N-]S(=O)(=O)C(F)(F)F)C(F)(F)F
[1]
Conditions	molar heat capacity at constant pressure [J/K/mol]
293 K	630
298 K	629
303 K	632
308 K	639
313 K	644
318 K	650
323 K	654
328 K	656
333 K	659
338 K	661
343 K	660
348 K	659
353 K	658

CCCCCCCCn1cc[n+](C)c1.O=S(=O)([N-]S(=O)(=O)C(F)(F)F)C(F)(F)F
[1]
Conditions	molar heat capacity at constant pressure [J/K/mol]
293 K	724
298 K	733
303 K	741
308 K	748
313 K	756
318 K	765
323 K	773
328 K	779
333 K	788
338 K	795
343 K	803
348 K	810
353 K	817
358 K	825

CCCC[n+]1ccn(C)c1.O=S(=O)([N-]S(=O)(=O)C(F)(F)F)C(F)(F)F + CCCCn1cc[n+](C)c1.[Cl-]
[2]
Conditions	molar heat capacity at constant pressure [J/K/mol]
x2 = 0.0919	549
x2 = 0.2394	515
x2 = 0.4129	468
x2 = 0.5832	420

CCOS(=O)(=O)[O-].CCn1cc[n+](C)c1 [1-ethyl-3-methylimidazolium ethyl sulfate]
[1]
Conditions	molar heat capacity at constant pressure [J/K/mol]
293 K	388
298 K	389
303 K	391
308 K	394
313 K	398
318 K	402
323 K	406
328 K	410
333 K	415
338 K	420
343 K	427
348 K	433
353 K	440
358 K	447
